In paper PMC11822212, “High-throughput screening identifies Aurora kinase B as a critical therapeutic target for Merkel cell carcinoma” (Nature Communications, 2025):
Structures can show the parent of a compound that is named as a salt. Where two headings read alike, the source gives them in different places.

Legend:
[1] = system: MCC13 cells (VN-MCC); assay: qHTS cell viability (CellTiter-Glo, 72 h; primary and follow-up small molecule screen); assay type: cell-based, human
[2] = system: MCC26 cells (VN-MCC); assay: as above; assay type: cell-based, human
[3] = system: UISO cells (VN-MCC); assay: as above; assay type: cell-based, human
[4] = system: WAGA cells (VP-MCC); assay: as above; assay type: cell-based, human
[5] = system: MKL-1 cells (VP-MCC); assay: as above; assay type: cell-based, human
[6] = system: MKL-2 cells (VP-MCC); assay: as above; assay type: cell-based, human
[7] = system: HACAT cells; assay: qHTS cell viability (CellTiter-Glo, 72 h; primary screen), control cell line; assay type: cell-based, human
[8] = system: HEK293T cells; assay: as above; assay type: cell-based, human
[9] = system: NIH-3T3 cells; assay: as above; assay type: cell-based, mouse
[10] = system: CRL-7250 cells; assay: as above; assay type: cell-based
[11] = system: MCC cell lines (WAGA, MKL-1, MKL-2, MCC13, MCC26, UISO); assay: qHTS cell viability, all six MCC cell lines as a group (mean AUC, MCC.avg); assay type: cell-based, human
[12] = system: VP-MCC cell lines (WAGA, MKL-1, MKL-2); assay: qHTS cell viability, VP-MCC cell lines as a group (mean AUC, VP.MCC.avg); assay type: cell-based, human
[13] = system: VN-MCC cell lines (MCC13, MCC26, UISO); assay: qHTS cell viability, VN-MCC cell lines as a group (mean AUC, VN.MCC.avg); assay type: cell-based, human
[14] = system: control cell lines (HACAT, HEK293T, CRL-7250, NIH-3T3); assay: qHTS cell viability, control cell lines as a group (mean AUC, Control.avg); assay type: cell-based
[15] = system: six MCC cell lines and four control cell lines; assay: qHTS cell viability, all 10 cell lines screened; assay type: cell-based
[16] = MIPE library, 11-point DRC, sheet S2E
[17] = MIPE library, 11-point DRC, control cell line, sheet S2E
[18] = NPC library, qHTS dose-response AUC, MCC13
[19] = NPC library, qHTS dose-response AUC, MCC26
[20] = NPC library, qHTS dose-response AUC, UISO
[21] = NPC library, qHTS dose-response AUC, WAGA
[22] = NPC library, qHTS dose-response AUC, MKL1
[23] = NPC library, qHTS dose-response AUC, MKL2
[24] = NPC library, qHTS dose-response AUC, HACAT control
[25] = NPC library, qHTS dose-response AUC, HEK293T control
[26] = NPC library, qHTS dose-response AUC, NIH3T3 control
[27] = NPC library, qHTS dose-response AUC, CRL7250 control
[28] = NPC library, mean AUC of six MCC cell lines
[29] = NPC library, mean AUC of VP-MCC cell lines
[30] = NPC library, therapeutic window: Control avg AUC minus VP-MCC avg AUC
[31] = NPC library, mean AUC of VN-MCC cell lines
[32] = NPC library, therapeutic window: Control avg AUC minus VN-MCC avg AUC
[33] = NPC library, mean AUC of control cell lines
[34] = NPC library, therapeutic window: Control avg AUC minus MCC avg AUC

## Cc1c(C)n(Cc2ccc(-c3ccccc3C(=O)O)cc2)c2ccc(C(=O)N[C@@H](C)c3ccc([N+](=O)[O-])cc3)cc12 [SR1664]
[1]; [16]
  MCC13_AUC: 475.759
[1]; area under the dose-response curve, MCC13 cells, AUC<450 = reduced viability
  MCC13_AUC: 475.759
[2]; [16]
  MCC26_AUC: 470.066
[2]; area under the dose-response curve, MCC26 cells, AUC<450 = reduced viability
  MCC26_AUC: 470.066
[3]; [16]
  UISO_AUC: 472.261
[3]; area under the dose-response curve, UISO cells, AUC<450 = reduced viability
  UISO_AUC: 472.261
[4]; [16]
  WAGA_AUC: 329.214
[4]; area under the dose-response curve, WAGA cells, AUC<450 = reduced viability
  WAGA_AUC: 329.214
[5]; [16]
  MKL1_AUC: 300.491
[5]; area under the dose-response curve, MKL-1 cells, AUC<450 = reduced viability
  MKL1_AUC: 300.491
[6]; [16]
  MKL2_AUC: 319.019
[6]; area under the dose-response curve, MKL-2 cells, AUC<450 = reduced viability
  MKL2_AUC: 319.019
[7]; [17]
  HACAT_AUC: 479.075
[7]; area under the dose-response curve, HACAT control cells, AUC<450 = reduced viability
  HACAT_AUC: 479.075
[8]; [17]
  HEK293T_AUC: 470.145
[8]; area under the dose-response curve, HEK293T control cells, AUC<450 = reduced viability
  HEK293T_AUC: 470.145
[9]; [17]
  NIH3T3_AUC: 484.086
[9]; area under the dose-response curve, NIH3T3 control cells, AUC<450 = reduced viability
  NIH3T3_AUC: 484.086
[10]; [17]
  CRL7250_AUC: 475.771
[10]; area under the dose-response curve, CRL7250 control cells, AUC<450 = reduced viability
  CRL7250_AUC: 475.77
[11]; MIPE library, mean AUC of six MCC cell lines, sheet S2E
  MCC_Avg_AUC: 394.468
[12]; MIPE library, Control AUC minus VP-MCC AUC (therapeutic window), sheet S2E
  Control-VP-MCC: 161.027
[12]; MIPE library, mean AUC of VP-MCC cell lines, sheet S2E
  VP-MCC_Avg_AUC: 316.242
[13]; MIPE library, Control AUC minus VN-MCC AUC (therapeutic window), sheet S2E
  Control-VN-MCC: 4.574
[13]; MIPE library, mean AUC of VN-MCC cell lines, sheet S2E
  VN-MCC_Avg_AUC: 472.695
[14]; MIPE library, mean AUC of control cell lines, sheet S2E
  Control_Avg_AUC: 477.269
[15]; MIPE library, Control AUC minus MCC AUC (therapeutic window), sheet S2E
  Control-MCC: 82.8007

## CC(C)(O)/C=C/C(=O)[C@](C)(O)[C@H]1[C@H](O)C[C@@]2(C)[C@@H]3CC=C4[C@@H](C=C(O)C(=O)C4(C)C)[C@]3(C)C(=O)C[C@]12C [Cucurbitacin I]
[1]
  MCC13_AUC: 297.405
[2]
  MCC26_AUC: 343.064
[3]
  UISO_AUC: 252.668
[4]
  WAGA_AUC: 216.289
[5]
  MKL1_AUC: 212.417
[6]
  MKL2_AUC: 186.366
[7]
  HACAT_AUC: 326.184
[8]
  HEK293T_AUC: 307.458
[9]
  NIH3T3_AUC: 387.943
[10]
  CRL7250_AUC: 234.715
[11]
  MCC_Avg_AUC: 251.368
[12]
  Control-VP-MCC: 109.051
  VP-MCC_Avg_AUC: 205.024
[13]
  Control-VN-MCC: 16.3626
  VN-MCC_Avg_AUC: 297.712
[14]
  Control_Avg_AUC: 314.075
[15]
  Control-MCC: 62.7066

## CNCc1ccccc1.Cl [N-Methylbenzylamine hydrochloride]
[1]; [18]
  MCC13_AUC: 438.819
[2]; [19]
  MCC26_AUC: 480.435
[3]; [20]
  UISO_AUC: 548.944
[4]; [21]
  WAGA_AUC: 372.649
[5]; [22]
  MKL1_AUC: 390.814
[6]; [23]
  MKL2_AUC: 343.012
[7]; [24]
  HACAT_AUC: 476.463
[8]; [25]
  HEK293T_AUC: 408.972
[9]; [26]
  NIH3T3_AUC: 497.435
[10]; [27]
  CRL7250_AUC: 502.537
[11]; [28]
  MCC_Avg_AUC: 429.112
[12]; [29]
  VP-MCC_Avg_AUC: 368.825
[12]; [30]
  Control-VP-MCC: 102.527
[13]; [31]
  VN-MCC_Avg_AUC: 489.399
[13]; [32]
  Control-VN-MCC: -18.0472
[14]; [33]
  Control_Avg_AUC: 471.352
[15]; [34]
  Control-MCC: 42.2399

## O=C1OC(CCN2CCCCC2)OC1(c1ccccc1)c1ccccc1 (stereo not drawn) [Pipoxolan hydrochloride]
[1]; [18]
  MCC13_AUC: 478.552
[2]; [19]
  MCC26_AUC: 460.749
[3]; [20]
  UISO_AUC: 412.652
[4]; [21]
  WAGA_AUC: 433.006
[5]; [22]
  MKL1_AUC: 437.466
[6]; [23]
  MKL2_AUC: 392.534
[7]; [24]
  HACAT_AUC: 493.052
[8]; [25]
  HEK293T_AUC: 445.369
[9]; [26]
  NIH3T3_AUC: 468.074
[10]; [27]
  CRL7250_AUC: 487.056
[11]; [28]
  MCC_Avg_AUC: 435.827
[12]; [29]
  VP-MCC_Avg_AUC: 421.002
[12]; [30]
  Control-VP-MCC: 52.3854
[13]; [31]
  VN-MCC_Avg_AUC: 450.651
[13]; [32]
  Control-VN-MCC: 22.7364
[14]; [33]
  Control_Avg_AUC: 473.388
[15]; [34]
  Control-MCC: 37.5609
